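All cell lines were grown in 96-well plates and treated with compound for 48 hours. GI50 = concentration required for 50% inhibition of growth. TGI is the concentration that stops growth completely.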
Columns and labels:
Test in all cases: NCI tumour cell line growth inhibition, 48 h
786-0 renal = test system: 786-0 renal
A498 renal = test system: A498 renal
A549 NSCLC = test system: A549 NSCLC
ACHN renal = test system: ACHN renal
BT-549 breast = test system: BT-549 breast
CAKI-1 renal = test system: CAKI-1 renal
CCRF-CEM leukemia = test system: CCRF-CEM leukemia
COLO 205 colon = test system: COLO 205 colon
DU-145 prostate = test system: DU-145 prostate
EKVX NSCLC = test system: EKVX NSCLC
HCC-2998 colon = test system: HCC-2998 colon
HCT-116 colon = test system: HCT-116 colon
HCT-15 colon = test system: HCT-15 colon
HL-60(TB) leukemia = test system: HL-60(TB) leukemia
HOP-62 NSCLC = test system: HOP-62 NSCLC
HOP-92 NSCLC = test system: HOP-92 NSCLC
HS 578T breast = test system: HS 578T breast
HT29 colon = test system: HT29 colon
IGROV1 ovarian = test system: IGROV1 ovarian
K-562 leukemia = test system: K-562 leukemia
KM12 colon = test system: KM12 colon
LOX IMVI melanoma = test system: LOX IMVI melanoma
M14 melanoma = test system: M14 melanoma
MALME-3M melanoma = test system: MALME-3M melanoma
MCF7 breast = test system: MCF7 breast
MDA-MB-231 breast = test system: MDA-MB-231 breast
MDA-MB-435 = test system: MDA-MB-435
MOLT-4 leukemia = test system: MOLT-4 leukemia
NCI-H226 lung = test system: NCI-H226 lung
NCI-H23 lung = test system: NCI-H23 lung
NCI-H460 lung = test system: NCI-H460 lung
NCI-H522 lung = test system: NCI-H522 lung
OVCAR-3 ovarian = test system: OVCAR-3 ovarian
OVCAR-4 ovarian = test system: OVCAR-4 ovarian
OVCAR-5 ovarian = test system: OVCAR-5 ovarian
OVCAR-8 ovarian = test system: OVCAR-8 ovarian
PC-3 prostate = test system: PC-3 prostate
RPMI-8226 leukemia = test system: RPMI-8226 leukemia
SF-268 CNS = test system: SF-268 CNS
SF-295 CNS = test system: SF-295 CNS
SF-539 CNS = test system: SF-539 CNS
SK-MEL-28 melanoma = test system: SK-MEL-28 melanoma
SK-MEL-5 melanoma = test system: SK-MEL-5 melanoma
SK-OV-3 ovarian = test system: SK-OV-3 ovarian
SN12C renal = test system: SN12C renal
SNB-19 CNS = test system: SNB-19 CNS
SNB-75 CNS = test system: SNB-75 CNS
SR leukemia = test system: SR leukemia
SW-620 colon = test system: SW-620 colon
T-47D breast = test system: T-47D breast
TK-10 renal = test system: TK-10 renal
U251 CNS = test system: U251 CNS
UACC-257 melanoma = test system: UACC-257 melanoma
UACC-62 melanoma = test system: UACC-62 melanoma
UO-31 renal = test system: UO-31 renal

COc1cccc(C(N)=Nc2ccc(OCCCCCCCCn3cncn3)cc2)c1
GI50 (786-0 renal): 812 nM
TGI (786-0 renal): 26900 nM
GI50 (A498 renal): 14900 nM
TGI (A498 renal): 59500 nM
GI50 (A549 NSCLC): 581 nM
TGI (A549 NSCLC): > 100000 nM
GI50 (ACHN renal): 650 nM
TGI (ACHN renal): 39400 nM
GI50 (BT-549 breast): 975 nM
TGI (BT-549 breast): 22300 nM
GI50 (CAKI-1 renal): 473 nM
TGI (CAKI-1 renal): 45400 nM
GI50 (CCRF-CEM leukemia): 292 nM
TGI (CCRF-CEM leukemia): 10400 nM
GI50 (COLO 205 colon): 315 nM
TGI (COLO 205 colon): 1090 nM
GI50 (DU-145 prostate): 417 nM
TGI (DU-145 prostate): 31500 nM
GI50 (EKVX NSCLC): 429 nM
TGI (EKVX NSCLC): > 75200 nM
GI50 (HCC-2998 colon): 380 nM
TGI (HCC-2998 colon): 3520 nM
GI50 (HCT-116 colon): 417 nM
TGI (HCT-116 colon): 17100 nM
GI50 (HCT-15 colon): 330 nM
TGI (HCT-15 colon): 12400 nM
GI50 (HL-60(TB) leukemia): 306 nM
TGI (HL-60(TB) leukemia): 1080 nM
GI50 (HOP-62 NSCLC): 614 nM
TGI (HOP-62 NSCLC): 18500 nM
GI50 (HOP-92 NSCLC): 1630 nM
TGI (HOP-92 NSCLC): 30200 nM
GI50 (HS 578T breast): 374 nM
TGI (HS 578T breast): 38900 nM
GI50 (HT29 colon): 319 nM
TGI (HT29 colon): 1420 nM
GI50 (IGROV1 ovarian): 530 nM
TGI (IGROV1 ovarian): 21000 nM
GI50 (K-562 leukemia): 230 nM
TGI (K-562 leukemia): > 100000 nM
GI50 (KM12 colon): 425 nM
TGI (KM12 colon): > 65500 nM
GI50 (LOX IMVI melanoma): 522 nM
TGI (LOX IMVI melanoma): 11800 nM
GI50 (M14 melanoma): 324 nM
TGI (M14 melanoma): 18900 nM
GI50 (MALME-3M melanoma): 310 nM
TGI (MALME-3M melanoma): 17400 nM
GI50 (MCF7 breast): 266 nM
TGI (MCF7 breast): 15000 nM
GI50 (MDA-MB-231 breast): 385 nM
TGI (MDA-MB-231 breast): 4890 nM
GI50 (MDA-MB-435): 130 nM
TGI (MDA-MB-435): 378 nM
GI50 (MOLT-4 leukemia): 596 nM
TGI (MOLT-4 leukemia): > 100000 nM
GI50 (NCI-H226 lung): 295 nM
TGI (NCI-H226 lung): 2050 nM
GI50 (NCI-H23 lung): 385 nM
TGI (NCI-H23 lung): 15500 nM
GI50 (NCI-H460 lung): 356 nM
TGI (NCI-H460 lung): > 33500 nM
GI50 (NCI-H522 lung): 274 nM
TGI (NCI-H522 lung): 1290 nM
GI50 (OVCAR-3 ovarian): 369 nM
TGI (OVCAR-3 ovarian): 25400 nM
GI50 (OVCAR-4 ovarian): 3180 nM
TGI (OVCAR-4 ovarian): > 100000 nM
GI50 (OVCAR-5 ovarian): 493 nM
TGI (OVCAR-5 ovarian): > 45600 nM
GI50 (OVCAR-8 ovarian): 342 nM
TGI (OVCAR-8 ovarian): 2100 nM
GI50 (PC-3 prostate): 424 nM
TGI (PC-3 prostate): > 50300 nM
GI50 (RPMI-8226 leukemia): 293 nM
TGI (RPMI-8226 leukemia): 4870 nM
GI50 (SF-268 CNS): 1990 nM
TGI (SF-268 CNS): 42800 nM
GI50 (SF-295 CNS): 320 nM
TGI (SF-295 CNS): 11000 nM
GI50 (SF-539 CNS): 235 nM
TGI (SF-539 CNS): 585 nM
GI50 (SK-MEL-28 melanoma): 693 nM
TGI (SK-MEL-28 melanoma): 24100 nM
GI50 (SK-MEL-5 melanoma): 286 nM
TGI (SK-MEL-5 melanoma): 1090 nM
GI50 (SK-OV-3 ovarian): 540 nM
TGI (SK-OV-3 ovarian): 49200 nM
GI50 (SN12C renal): 485 nM
TGI (SN12C renal): 14300 nM
GI50 (SNB-19 CNS): 576 nM
TGI (SNB-19 CNS): > 67700 nM
GI50 (SNB-75 CNS): 262 nM
TGI (SNB-75 CNS): > 45400 nM
GI50 (SR leukemia): 319 nM
TGI (SR leukemia): > 56900 nM
GI50 (SW-620 colon): 387 nM
TGI (SW-620 colon): > 100000 nM
GI50 (T-47D breast): 426 nM
TGI (T-47D breast): > 72400 nM
GI50 (TK-10 renal): 799 nM
TGI (TK-10 renal): > 100000 nM
GI50 (U251 CNS): 333 nM
TGI (U251 CNS): 4570 nM
GI50 (UACC-257 melanoma): 2020 nM
TGI (UACC-257 melanoma): 27800 nM
GI50 (UACC-62 melanoma): 435 nM
TGI (UACC-62 melanoma): 17200 nM
GI50 (UO-31 renal): 544 nM
TGI (UO-31 renal): 19900 nM

From PubChem BioAssay (NCI)
